By Tmax is commonly meant the time at which the peak concentration occurs. One may read the half-life as the time needed for the level to fall by half in the phase considered.

This series can be described thus: Pharmacokinetics of naloxone in Beagle dog, IM injection. It counts as in vivo. The following applies: both sexes, plasma, 0.3 mg/kg, Beagle dogs.

Experimental: Pharmacokinetic (“PK”) data was collected from male and female Beagle dogs. Two (2) animals of each sex were assigned to three cohorts. […] Each injection was administered at a dose of 0.3 mg/kg.
Blood samples were collected from each animal following IV injections at target time points of pre-dose, and at 0.033, 0.083, 0.167, 0.333, 0.5, 1, 2, 4, and 8 hr. Blood samples were also collected from each animal following IM injections at target time points of pre dose, and at 0.083, 0.167, 0.25, 0.333, 0.5, 1, 2, 4, and 8 hr. Blood samples were collected into tubes containing dipotassium ethylenediaminetetraacetic acid (K2EDTA), processed to plasma, and stored until analyzed for naloxone.
PK analysis was performed using the target dose (mg/kg), sample collection time points (hr), and the measured concentrations of naloxone (ng/mL) in serum. If the actual sample collection time points were within 5% of target from 0 to 4 hours or within 15 minutes after 4 hours, then the target time points were used. […] The lower limit of quantitation (LLOQ) in plasma for this method is 0.2 ng/mL.
The method utilized protein precipitation in a 96-well format and LC-MS/MS analysis. The literature method was modified to utilize a larger sample size (50 μL) analysis.
The concentration-time profiles were evaluated using the non-compartmental analysis (NCA) module in the WinNonlin® software program (Version 8.2). […]

Turning to `C=CCN1CC[C@]23c4c5ccc(O)c4O[C@H]2C(=O)CC[C@@]3(O)[C@H]1C5` [naloxone], the time to peak (Tmax) (following IM injection, typical value) is approximately 15 min. The half-life (following both IM and IV injection, read-out: group mean elimination half-life) is 28 to 35 min.

Values taken from patent US20230149388A1, “OPIOID ANTAGONIST FORMULATIONS” (EMERGENT PRODUCT DEVELOPMENT GAITHERSBURG INC., priority 2020, published 2023).
